# Source: patent US20250263404A1, “AMINOPYRIDINES AS ACTIVATORS OF PI3 KINASE” (UCL Business Ltd, priority 2021, published 2025)
# Legend:
# PI3Kα = PI3Kα (Homo sapiens, UniProt P42336); assay: ADP-Glo in vitro lipid kinase assay, PI3Kα; format: biochemical; set-up: Full-length p110α was expressed in a complex with full-length p85α (for biochemistry and HDX-MS); 6xHis followed by TEV protease site (N); made in house; host or cells: Spodoptera frugiperda Sf9 (baculovirus co-infection; plasmids OP831 and OP809); conditions: for EC50: in vitro PI3Kα activation; for Max. activity relative to pY ctrl: relative to pY control
# Sequence of PI3Kα (P42336 whole entry, the tested form may be a part): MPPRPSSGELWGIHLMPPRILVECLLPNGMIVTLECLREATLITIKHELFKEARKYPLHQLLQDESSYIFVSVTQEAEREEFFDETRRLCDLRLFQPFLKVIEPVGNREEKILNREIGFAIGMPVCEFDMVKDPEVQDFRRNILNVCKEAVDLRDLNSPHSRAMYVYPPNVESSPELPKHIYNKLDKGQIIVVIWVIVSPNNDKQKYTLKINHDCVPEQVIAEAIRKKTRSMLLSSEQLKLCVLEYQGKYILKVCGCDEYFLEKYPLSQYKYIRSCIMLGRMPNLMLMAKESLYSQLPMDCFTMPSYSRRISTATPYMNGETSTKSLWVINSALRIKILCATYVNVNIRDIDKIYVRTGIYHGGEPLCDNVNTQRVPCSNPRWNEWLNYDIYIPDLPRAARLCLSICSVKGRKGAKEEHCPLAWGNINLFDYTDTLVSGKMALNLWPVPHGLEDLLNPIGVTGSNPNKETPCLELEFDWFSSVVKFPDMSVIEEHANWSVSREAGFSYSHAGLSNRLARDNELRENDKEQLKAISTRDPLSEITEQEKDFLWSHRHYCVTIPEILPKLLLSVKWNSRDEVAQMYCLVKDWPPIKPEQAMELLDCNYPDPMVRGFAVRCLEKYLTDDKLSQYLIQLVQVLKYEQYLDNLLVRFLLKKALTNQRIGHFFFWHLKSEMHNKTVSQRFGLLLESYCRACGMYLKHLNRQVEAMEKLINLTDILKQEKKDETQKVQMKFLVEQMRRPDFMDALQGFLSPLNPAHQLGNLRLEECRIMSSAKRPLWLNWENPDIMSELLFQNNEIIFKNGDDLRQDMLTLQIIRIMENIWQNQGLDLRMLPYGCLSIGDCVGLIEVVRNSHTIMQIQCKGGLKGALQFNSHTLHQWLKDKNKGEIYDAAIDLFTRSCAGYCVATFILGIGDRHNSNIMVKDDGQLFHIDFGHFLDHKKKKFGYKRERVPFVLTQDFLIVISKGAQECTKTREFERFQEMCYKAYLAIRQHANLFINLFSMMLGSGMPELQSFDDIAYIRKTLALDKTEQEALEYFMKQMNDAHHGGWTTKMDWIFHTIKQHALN
# Sequence of PI3Kα (P27986 whole entry partner, the tested form may be a part): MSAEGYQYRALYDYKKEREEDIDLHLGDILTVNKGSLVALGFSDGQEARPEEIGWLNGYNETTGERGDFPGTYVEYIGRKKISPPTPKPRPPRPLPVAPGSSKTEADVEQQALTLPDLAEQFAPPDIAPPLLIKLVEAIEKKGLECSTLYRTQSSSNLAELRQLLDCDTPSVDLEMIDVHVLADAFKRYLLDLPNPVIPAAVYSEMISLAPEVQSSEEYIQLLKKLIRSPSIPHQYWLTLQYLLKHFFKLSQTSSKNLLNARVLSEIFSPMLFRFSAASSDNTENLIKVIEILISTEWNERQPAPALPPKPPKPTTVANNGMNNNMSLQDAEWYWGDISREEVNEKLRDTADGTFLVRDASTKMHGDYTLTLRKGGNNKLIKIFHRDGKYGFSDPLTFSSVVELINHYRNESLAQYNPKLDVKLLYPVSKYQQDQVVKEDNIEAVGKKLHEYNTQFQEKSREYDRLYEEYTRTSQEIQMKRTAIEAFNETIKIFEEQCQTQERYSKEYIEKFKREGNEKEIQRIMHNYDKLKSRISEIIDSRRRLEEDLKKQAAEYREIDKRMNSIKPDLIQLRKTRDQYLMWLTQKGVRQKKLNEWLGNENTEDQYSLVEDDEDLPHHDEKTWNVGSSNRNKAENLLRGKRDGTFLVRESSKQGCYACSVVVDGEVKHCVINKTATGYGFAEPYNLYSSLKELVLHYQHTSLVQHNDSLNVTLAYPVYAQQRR
# Experimental: The effect of 1938 on the in vitro lipid kinase activity of p85α in complex with p110α, p110β or p110δ (further referred to as PI3Kα, PI3Kβ and PI3Kδ) was tested. As a positive control, a bis-phosphorylated phosphopeptide (a PDGF-receptor-derived peptide phosphorylated on Tyr-740 and Tyr-751, hereafter referred to as pY peptide) was used to mimic engagement of the p85α SH2 domains with tyrosine-phosphorylated peptides in membrane-bound receptors and adaptor proteins, known to activate the PI3Kα complex.
# Kinase reactions were performed with ADP-Glo kinase assay kit (Promega Corporation). The enzyme, substrate and compounds were diluted in reaction buffer (20 mM HEPES, 50 mM NaCl, 50 mM KCl, 3 mM MgCl2, 1 mM EGTA, 1 mM TCEP, pH 7.4). Final concentrations of PI3Kα and PI3Kδ used were 25 nM and 50 nM for PI3Kβ. Liposomes (5% brain PI(4,5)P2, 20% brain phosphatidylserine, 45% brain phosphatidylethanolamine, 15% brain phosphatidylcholine, 10% cholesterol, 5% sphingomyelin (Avanti Polar Lipids)) were used at a final concentration of 1 mg/ml.
# For compound profiling, the reaction mixture contained 2 μl PI3K enzyme, 2 μl compound and/or pY and 2 μl of liposome substrate mixed with ATP. ATP was used at a final concentration of 500 μM for PI3Kα and PI3Kβ and at 200 μM for PI3Kδ, unless otherwise stated. The final DMSO concentration in the assay was 1%. The experiments were performed at room temperature for 3 h using 384 white-polystyrene plates (Corning #3824) before addition of 6 μl of ADP-Glo R1 to terminate the reaction. The plate was incubated for 45 min, followed by addition of 12 μl of ADP-Glo R2 and incubated further for 60 min in the dark. Luminescence was read using a Sense (Hidex) plate reader. […] All analyses were performed using GraphPad Prism 7.
# For characterisation of the effects of 1938 on in vitro PI3K enzymology, all reactions were performed at room temperature with 384 white-polystyrene plates (Corning #3574). The final DMSO concentration in the assay was between 0.5%-1.8%. The reaction mixture contained 2 μl PI3K enzyme, 2 μl compound and/or pY and 2 μl of liposome substrate mixed with ATP. ATP was used at a final concentration of 200 μM, unless otherwise stated. The enzyme and compounds were pre-incubated for 10 min prior to addition of substrate. The reaction was allowed to proceed for 45 min at room temperature, before addition of 6 μl of ADP-Glo R1 to terminate the reaction. The plate was incubated for 60 min, followed by addition of 12 μl of ADP-Glo R2 and incubated further for 60 min in the dark. For enzyme kinetic calculations, data was expressed as velocity (pmol of ADP generated/sec). ADP-ATP standard curves were performed according to the manufacturer's instructions, and all analyses were performed using GraphPad Prism 8.
# [1] = Solubility (comparison in words); format: physicochemical
compound,measurement,setting,value
COc1cc(N2CCN(C)CC2)ccc1Nc1cc(Nc2cccc3c2N(C(C)=O)CC3)ccn1 [Example 1889],activity compared with 1938 (in words),PI3Kα,activities comparable with 1938
same,EC50,PI3Kα,56 ± 24 µM
same,Max. activity relative to 1938,PI3Kα,102%
same,Max. activity relative to pY ctrl,PI3Kα,408 ± 110%
CCN1CCN(c2ccc(Nc3nccc(Nc4cccc5c4N(C(C)=O)CC5)n3)cc2)CC1 [Example 2152],Max. activity relative to 1938,PI3Kα,4%
same,Max. activity relative to pY ctrl,PI3Kα,16 ± 8%
CCN1CCN(c2ccc(Nc3cc(Nc4ccncn4)ccn3)cc2)CC1 [Example 2106],Max. activity relative to 1938,PI3Kα,4%
same,Max. activity relative to pY ctrl,PI3Kα,14 ± 13%
CC(=O)N1CCc2cccc(Nc3ccnc(Nc4ccccc4)c3)c21 [Example 2016],Max. activity relative to 1938,PI3Kα,9%
same,Max. activity relative to pY ctrl,PI3Kα,36 ± 8%
same,reduction in activity,PI3Kα; structure-activity comparison with 1938,more than 90%
same,solubility compared with 1938 (in words),[1],less soluble than 1938
COc1cc(Nc2cc(Nc3cccc4c3N(C(C)=O)CC4)ccn2)cc(OC)c1OC [Example 1887],activity compared with 1938 (in words),PI3Kα,activities comparable with 1938
same,EC50,PI3Kα,36 ± 5 µM
same,Max. activity relative to 1938,PI3Kα,80%
same,Max. activity relative to pY ctrl,PI3Kα,318 ± 68%
